These results are taken from US20040186098A1 (Amgen Inc., priority 1997, published 2004).

Like-named read-outs stand apart in the source and are kept apart here.

The subject of assay [1] is hair cells in rat organ of Corti explant. In words: Organ of Corti (cochlea) explant culture, hair cell survival after neomycin. The format is cell-based. The method, then: The sensorineurotrophic compound stock solution was stored at room temperature and prepared fresh for each culture. The stock solution was diluted in 10 μl of 100% EtOH for every milligram of sensorineurotrophic compound in the stock solution (approximately 250 mM). This solution of 250 mM sensorineurotrophic compound in 100% EtOH was diluted in normal culture medium to working concentrations of 50000 nM, 5000 nM, 500 nM, 50 nM, 5000 pM, 500 pM, 50 pM, 10 pM, 5 pM, 1 pM, 0.5 pM, 0.1 pM, and 0.01 pM. […]
Organ of Corti explants were obtained from P3-P4 Wistar rats. […] The organ of Corti then was transferred to a 35-mm diameter Petri dish containing cold PBS supplemented with glucose and was ready to be cultured. […]
To identify and count hair cells in the organ of Corti, a direct immunostaining method was used to label the actin present naturally in the stereocilia bundles of the hair cells. […] The explants were observed under a Nikon Diaphot-300 inverted fluorescence microscope, using FITC filters and fluorescence optics.
In each cochlea, the number of hair cells was counted in 2-3 sections, 175 μm in length each. Only the sections in the middle turn of the cochlea were analyzed. […]

Assay [2] shares this test system. To be noted: Compound I 0.05 pM, pretreatment at plating, cisplatin exposure day 2 to day 4; untreated 17%.

In the case of `CCC(C)(C)C(=O)C(=O)N1CCC[C@H]1C(=O)OCCCc1cccnc1` [Compound I], the figures for the surviving hair cells in assay [1] (Compound I 0.05 pM together with 0.6 mM neomycin) and in assay [2] were 31.8%±16.4 and 41.4%, respectively. The “loss of hair cells” value in assay [1] (Compound I 0.05 pM together with neomycin, neomycin alone 95%) was “around 70%”.
